Patent US20260007688A1, “SYNTHETIC ANALOGS OF CANNABINOL (CBN) FOR THE TREATMENT OF AGERELATED NEUROLOGICAL DISORDERS” (priority 2023, published 2026)
Where two headings read alike, the source gives them in different places.

Legend:
HT22 cells [1] = assay type: cell-based, mouse
Text: A series of fragment chemicals with different variants of the substructures were assembled and screened in a cell-based phenotypic screening assays in the context of oxytosis/ferroptosis (FIG. 1). Specifically, for the left unit (LU), monoterpenoids with different functional groups and/or double-bond substitutions as well as ring arrangements were screened. For the central unit (CU), benzene rings with different hydroxyl group substitutions were screened. For the right unit (RU), different lengths, with or without branches, of the aliphatic hydrocarbon chains were examined.
CBN, CBD and THC were used as reference compounds.
(§1) Briefly, HT22 cells were seeded at 3,000 cells/well in 96-well tissue culture plates in DMEM plus 10% FBS and 1% antibiotics. After 24 hours of plating, the cells were pretreated with different concentrations of the test compounds or a vehicle control for 1 hour followed by coincubation with 5 mM glutamate to initiate the cell death cascade. After 16 hours of treatment, cell viability was measured by the 3-(4,5-dimethylthiazol-2-yl)-2,5-diphenyltetrazolium bromide (MTT) assay. Optical absorbance was measured at 570 nm on a SpectraMax M5 microplate reader. Samples were analyzed in eight to sixteen wells per independent experiment (n=8-16).
as §1, with “The assay procedure described in Fischer et al. was used. Briefly,” for “Briefly,”, “of” for “of the”, “50-100 nM RSL3 or 500 nM erastin” for “5 mM glutamate”, “induce” for “initiate”, “MTT” for “3-(4,5-dimethylthiazol-2-yl)-2,5-diphenyltetrazolium bromide (MTT)”

HT22 cells [2] = experiment: Seahorse XF mitochondrial stress test (OCR); assay type: cell-based, mouse; conditions: 16 hours, compared with the control cells
Drosophila melanogaster = experiment: Drosophila mild traumatic brain injury (mTBI) model; assay type: in vivo; conditions: 3.0 μM in food, 3 weeks after mTBI (10×); vehicle 70.2%
HT22 cells [3] = experiment: Mitochondrial reactive oxygen species measurement (MitoSOX Red); assay type: cell-based, mouse; conditions: 5 μM compound + 50 nM RSL3
Protocol: The assay procedure described in Liang et al. was used. Briefly, HT22 cells were seeded onto 96-well black walled plates at a density of 3,000 cells/well in DMEM supplemented with 10% FBS and 1% antibiotics. After the desired treatments, the mitochondrial superoxide ROS were detected with MitoSOX Red reagent (Ex/Em=510/580 nm). Experiments were performed according to the manufacturer's instructions. Fluorescence was measured on a SpectraMax M5 microplate reader. Data were normalized for total protein/well. Each condition was analyzed in eight wells per independent experiment (n=8). Results are presented as the percentage of the controls with vehicle alone. Results were verified by live-cell imaging under a fluorescence microscope. FIG. 14 provides the results.

MC65 cells = experiment: Intracellular amyloid toxicity assay; assay type: cell-based; conditions: Homo sapiens, 72 h, APP-C99 induced, day 3, MTT, read-out: Aβ toxicity EC50
Text: Accumulation of intracellular amyloid beta peptide (Aβ) is considered by many as being a primary toxic event in AD. The human nerve cell line MC65 conditionally expresses the C99 fragment of the amyloid precursor protein (APP) leading to the accumulation of intracellular AB. The MC65 cells are routinely grown in the presence of tetracycline and, following its removal, the expression of C99 is induced and the cells die within three days because of the accumulation of intracellular, toxic protein aggregates.
For the intracellular amyloid toxicity assay the procedure described in Huang et al., “Intracellular amyloid toxicity induces oxytosis/ferroptosis regulated cell death” Cell Death Dis. 11 (10) (2020) 828 was used. Briefly, MC65 cells were regularly grown in high glucose DMEM supplemented with 10% FCS and 2 μg/ml tetracycline. For the assay, cells were dissociated and plated at 1×10^5 cells per well in 24 well tissue culture plates. After overnight cultivation in growth medium, the cells were washed three times with phosphate buffered saline containing calcium and magnesium and then switched to Opti-minimal essential media (Opti-MEM, Invitrogen) in the presence (no induction) or absence (APP-C99 induced) of 2 μg/ml tetracycline in the presence or absence different concentrations of the indicated compounds. At day 3, the control cells in the absence of tetracycline were dead, and cell viability was determined by the MTT assay. Optical absorbance was measured at 570 nm on a SpectraMax M5 microplate reader. Samples were analyzed in three wells per independent experiment (n=3). Results are presented as EC50.

HT22 cells [4] = experiment: Ferroptosis assay, erastin-induced cell death, MTT viability; assay type: cell-based; conditions: Mus musculus, HT-22, 500 nM erastin, 16 hours
Protocol: (§2) HT22 mouse hippocampal nerve cells were cultured in high-glucose Dulbecco's modified Eagle's medium (DMEM) (Invitrogen, Cat #11995065, Carlsbad, CA) supplemented with 10% fetal bovine serum (FBS) (Invitrogen, Carlsbad, CA) and 1% antibiotics including penicillin and streptomycin (Invitrogen Cat #10378016, Carlsbad, CA). Cell cultures were incubated at 37° C. in a fully humidified atmosphere containing 10% CO2.
as §1, with “The assay procedure described in Fischer et al. was used. Briefly,” for “Briefly,”, “of” for “of the”, “50-100 nM RSL3 or 500 nM erastin” for “5 mM glutamate”, “induce” for “initiate”, “MTT” for “3-(4,5-dimethylthiazol-2-yl)-2,5-diphenyltetrazolium bromide (MTT)”, “(n=8-16). Results are presented as the percentage of the controls with vehicle alone.” for “(n=8-16).”

HT22 cells [5] = experiment: Ferroptosis assay, RSL3-induced cell death, MTT viability; assay type: cell-based; conditions: Mus musculus, HT-22, 50 nM RSL3, 16 hours
Protocol: as §2
as §1, with “The assay procedure described in Fischer et al. was used. Briefly,” for “Briefly,”, “of” for “of the”, “50-100 nM RSL3 or 500 nM erastin” for “5 mM glutamate”, “induce” for “initiate”, “MTT” for “3-(4,5-dimethylthiazol-2-yl)-2,5-diphenyltetrazolium bromide (MTT)”, “(n=8-16). Results are presented as the percentage of the controls with vehicle alone.” for “(n=8-16).”

HT22 cells [6] = experiment: Oxytosis assay, glutamate-induced cell death, MTT viability; assay type: cell-based; conditions: Mus musculus, HT-22, 5 mM glutamate, 16 hours
Protocol: as §2
The assay procedure described in Fischer et al., “Old age-associated phenotypic screening for Alzheimer's disease drug candidates identifies sterubin as a potent neuroprotective compound from Yerba santa” Redox Biol. 21 (2019) 101089 was used. Briefly, HT22 cells were seeded at 3,000 cells/well in 96-well tissue culture plates in DMEM plus 10% FBS and 1% antibiotics. After 24 hours of plating, the cells were pretreated with different concentrations of the test compounds or a vehicle control for 1 hour followed by coincubation with 5 mM glutamate to initiate the cell death cascade. After 16 hours of treatment, cell viability was measured by the 3-(4,5-dimethylthiazol-2-yl)-2,5-diphenyltetrazolium bromide (MTT) assay. Optical absorbance was measured at 570 nm on a SpectraMax M5 microplate reader. Samples were analyzed in eight to sixteen wells per independent experiment (n=8-16). Results are presented as the percentage of the controls with vehicle alone.

CC(C)(C)c1cc(O)ccc1O [2-tert-butylbenzene-1,4-diol]
neuroprotective activity against oxytosis/ferroptosis (HT22 cells [1]; 10-50 μM, glutamate and RSL3): good to excellent neuroprotective activity

CCCCc1ccc(O)c(O)c1 [4-butylbenzene-1,2-diol]
neuroprotective activity against oxytosis/ferroptosis (HT22 cells [1]; 10-50 μM, glutamate and RSL3): good to excellent neuroprotective activity

CCCCCCc1ccc(O)cc1O [4-hexylresorcinol, 4-hexylbenzene-1,3-diol]
neuroprotective activity against oxytosis/ferroptosis (HT22 cells [1]; 10-50 μM, glutamate and RSL3): good to excellent neuroprotective activity

CCCCCCC(C)(C)c1cc(O)cc(O)c1 [5-(1,1-dimethylheptyl) resorcinol]
neuroprotection (HT22 cells [1]; 1 μM): > 50%

CCCCCCCCCCCCCCCc1cc(O)cc(O)c1 [5-pentadecylresorcinol]
neuroprotective activity against oxytosis/ferroptosis (HT22 cells [1]; 1-50 μM, glutamate and RSL3): no further improvement in neuroprotective activity

CCCCCCC(C)(C)c1cc(O)c2c(c1)OC(C)(C)C=C2 [CP1, 2,2-dimethyl-7-(2-methyloctan-2-yl)-2H-chromen-5-ol]
maximal and spare mitochondrial respiration (OCR) (HT22 cells [2]): strongest effect on the suppression | 3-week mortality index (MI), percentage of dead flies (Drosophila melanogaster): 49.5% | RSL3-induced mtROS production (HT22 cells [3]): strongest anti-mtROS effect | EC50 (MC65 cells): 31 nM | EC50 (HT22 cells [4]): 2780 nM | EC50 (HT22 cells [5]): 680 nM | EC50 (HT22 cells [6]): 1890 nM

CCCCCCC(C)(C)c1cc(O)c2c(c1)OC(C)C=C2 (centres unmarked) [CP2, 2-methyl-7-(2-methyloctan-2-yl)-2H-chromen-5-ol]
3-week mortality index (MI), percentage of dead flies (Drosophila melanogaster): 66.7% | EC50 (MC65 cells): 97 nM | EC50 (HT22 cells [4]): 3360 nM | EC50 (HT22 cells [5]): 920 nM | EC50 (HT22 cells [6]): 2890 nM

CCCCCc1cc(O)c2c(c1)OC(C)(C)C=C2 [CP3, 2,2-dimethyl-7-pentyl-2H-chromen-5-ol]
3-week mortality index (MI), percentage of dead flies (Drosophila melanogaster): 67.3% | EC50 (MC65 cells): 144 nM | EC50 (HT22 cells [4]): 3780 nM | EC50 (HT22 cells [5]): 860 nM | EC50 (HT22 cells [6]): 2600 nM

CCCCCc1cc(O)c2c(c1)OC(C)C=C2 (centres unmarked) [CP4, 2-methyl-7-pentyl-2H-chromen-5-ol]
3-week mortality index (MI), percentage of dead flies (Drosophila melanogaster): 61.9% | EC50 (MC65 cells): 1600 nM | EC50 (HT22 cells [4]): 8080 nM | EC50 (HT22 cells [5]): 830 nM | EC50 (HT22 cells [6]): 6630 nM

Oc1ccccc1O [catechol]
neuroprotective activity against oxytosis/ferroptosis (HT22 cells [1]; 10-50 μM, glutamate and RSL3): weak neuroprotective activities

Oc1ccc(O)cc1 [hydroquinone]
neuroprotective activity against oxytosis/ferroptosis (HT22 cells [1]): weak neuroprotective activities

Oc1ccc(O)c(O)c1 [hydroxyquinol]
neuroprotective activity against oxytosis/ferroptosis (HT22 cells [1]; 1-50 μM, glutamate and RSL3): limited neuroprotective activity

CCCCCc1cc(O)cc(O)c1 [olivetol, 5-pentyl-1,3-benzenediol]
neuroprotective activity against oxytosis/ferroptosis (HT22 cells [1]; 10-50 μM, glutamate and RSL3): good to excellent neuroprotective activity

Oc1ccccc1 [phenol]
neuroprotective activity against oxytosis/ferroptosis (HT22 cells [1]): limited neuroprotective activity

Oc1cc(O)cc(O)c1 [phloroglucinol]
neuroprotective activity against oxytosis/ferroptosis (HT22 cells [1]; 1-50 μM, glutamate and RSL3): limited neuroprotective activity

Oc1cccc(O)c1O [pyrogallol]
neuroprotective activity against oxytosis/ferroptosis (HT22 cells [1]; 1-50 μM, glutamate and RSL3): limited neuroprotective activity

Oc1cccc(O)c1 [resorcinol]
neuroprotective activity against oxytosis/ferroptosis (HT22 cells [1]; 1-50 μM, glutamate and RSL3): limited neuroprotective activity
